{"source": "patent US20240417410A1", "about": "“TRICYCLIC COMPOUNDS FOR THE TREATMENT OF CANCER” (Hoffmann-La Roche Inc., priority 2023, published 2024)", "test_in_all_cases": "Cell proliferation, CTG 3D, 7 d", "format_in_all_cases": "cell-based", "key": {"BEN": {"system": "BEN", "settings": "Homo sapiens, KRAS (WT ampl)", "protocol": "(§1) On Day-1, cells were plated in 384-well round-bottom ultra-low adhesion plates (cat. Corning 3830, with cell density adjusted according to Table 3. The assay plate was then centrifuged at 1000 rpm for 1 minute to ensure even distribution of cells. The plate was incubated at 37° C. in a 5% CO2 atmosphere (It is worth noting that for SW1271 cell plate, it needs to be incubated in an incubator without additional CO2).\n(§2) On Day 0, Example 24 or A122 was added to each well using a Tecan HP D300E dispenser, with a 3-fold dilution across 9 doses. The final concentration of DMSO was normalized to 0.2%. The assay plate was then centrifuged at 1000 rpm for 1 minute and incubated for 7 days.\n(§3) On Day 7, CellTiter-Glo (CTG) 3D reagent (Promega G9683) was dispensed into each well of a 384-well plate using a multi-drop dispenser (Thermo Scientific 66413). A liquid handling automation workstation (Bravo with a 384-well head) was used to mix the CTG reagents. Plates were left on a shaker for 30 minutes at 450 rpm, shielded from light.\n(§4) For data analysis, the XL-fit software (Supplier: ID Business Solutions Ltd., Software version: XL fit 5.0) was utilized. The percentage of inhibition was calculated using the formula: Inhibition %=(Max-Sample value)/(Max-Min)×100. Curve fitting was performed as follows: For complete dose-response curves, the relative IC50 was reported from the fit. For incomplete curves, if minimal inhibition was greater than 50%, an IC50 less than the lowest compound concentration was reported. If minimal inhibition was between 20% and 50%, the bottom was locked at 0% and the IC50 was reported. If maximal inhibition was less than 50%, an IC50 greater than the highest compound concentration was reported."}, "GP5d": {"system": "GP5d", "settings": "Homo sapiens, KRAS (G12D)", "protocol": "as §1, §2, §3, §4"}, "KLE": {"system": "KLE", "settings": "Homo sapiens, KRAS (WT ampl)", "protocol": "as §1, §2, §3, §4"}, "KMS-28BM": {"system": "KMS-28BM", "settings": "Homo sapiens", "protocol": "as §1, §2, §3, §4"}, "LS513": {"system": "LS513", "settings": "Homo sapiens, LS-513; LS513, KRAS (G12D)", "protocol": "as §1, §2, §3, §4"}, "MKN-1": {"system": "MKN-1", "settings": "Homo sapiens; MKN-1, KRAS (WT ampl)", "protocol": "as §1, §2, §3, §4"}, "MM.1S": {"system": "MM.1S", "settings": "Homo sapiens, MM1.S", "protocol": "as §1, §2, §3, §4"}, "MOLP8": {"system": "MOLP8", "settings": "Homo sapiens, MOLP-8", "protocol": "as §1, §2, §3, §4"}, "MOLT-4": {"system": "MOLT-4", "settings": "Homo sapiens; MOLT-4, NRAS (p.G12C)", "protocol": "as §1, §2, §3, §4"}, "Mia-pa-ca-2": {"system": "Mia-pa-ca-2", "settings": "Homo sapiens, MIA PaCa-2; Mia-pa-ca-2, KRAS (G12C)", "protocol": "as §1, §2, §3, §4"}, "NCI-H1299": {"system": "NCI-H1299", "settings": "Homo sapiens", "protocol": "as §1, §2, §3, §4"}, "NCI-H1573": {"system": "NCI-H1573", "settings": "Homo sapiens", "protocol": "as §1, §2, §3, §4"}, "NCI-H1944": {"system": "NCI-H1944", "settings": "Homo sapiens", "protocol": "as §1, §2, §3, §4"}, "NCI-H2122": {"system": "NCI-H2122", "settings": "Homo sapiens; NCI-H2122, KRAS (G12C)", "protocol": "as §1, §2, §3, §4"}, "NCI-H23": {"system": "NCI-H23", "settings": "Homo sapiens; NCI-H23, KRAS (G12C)", "protocol": "as §1, §2, §3, §4"}, "NCI-H2444": {"system": "NCI-H2444", "settings": "Homo sapiens; NCI-H2444, KRAS (G12V)", "protocol": "as §1, §2, §3, §4"}, "NCI-H441": {"system": "NCI-H441", "settings": "Homo sapiens; NCI-H441, KRAS (G12V)", "protocol": "as §1, §2, §3, §4"}, "NCI-H929": {"system": "NCI-H929", "settings": "Homo sapiens", "protocol": "as §1, §2, §3, §4"}, "OCI-Ly19": {"system": "OCI-Ly19", "settings": "Homo sapiens", "protocol": "as §1, §2, §3, §4"}, "PSN-1": {"system": "PSN-1", "settings": "Homo sapiens, PSN1", "protocol": "as §1, §2, §3, §4"}, "RERF-LC-Ad1": {"system": "RERF-LC-Ad1", "settings": "Homo sapiens", "protocol": "as §1, §2, §3, §4"}, "SK-MEL-2": {"system": "SK-MEL-2", "settings": "Homo sapiens", "protocol": "as §1, §2, §3, §4"}, "SK-N-SH": {"system": "SK-N-SH", "settings": "Homo sapiens", "protocol": "as §1, §2, §3, §4"}, "SKM-1": {"system": "SKM-1", "settings": "Homo sapiens", "protocol": "as §1, §2, §3, §4"}, "SW 1088": {"system": "SW 1088", "settings": "Homo sapiens, SW1088", "protocol": "as §1, §2, §3, §4"}, "SW 1990": {"system": "SW 1990", "settings": "Homo sapiens, SW1990; SW 1990, KRAS (G12D)", "protocol": "as §1, §2, §3, §4"}, "SW620": {"system": "SW620", "settings": "Homo sapiens, SW-620; SW620, KRAS (G12V)", "protocol": "as §1, §2, §3, §4"}, "TT": {"system": "TT", "settings": "Homo sapiens, KRAS (WT ampl)", "protocol": "as §1, §2, §3, §4"}}, "note": "Where two headings read alike, the source gives them in different places.", "data": [{"compound": "CO[C@@H](C)c1ncc(N2CCN(C)CC2)cc1-c1c2c3cc(cc4c3n1CCC4)-c1csc(n1)C[C@H](NC(=O)[C@H]1[C@H](C)[C@@H]1C)C(=O)N1CCC[C@H](N1)C(=O)OCC(C)(C)C2", "note": "(atropisomer, axis not shown; (M)) [Example 24, (1r,2R,3S)-N-[(7S,13S)-(20M)-20-[2-[(1S)-1-methoxyethyl]-5-(4-methylpiperazin-1-yl)-3-pyridyl]-17,17-dimethyl-8,14-dioxo-15-oxa-4-thia-9,21,30,31-tetrazahexacyclo[23.3.1.1^2,5.1^9,13.0^19,27.0^21,26]hentriaconta-1 (28),2,5 (31), 19,25 (29),26-hexaen-7-yl]-2,3-dimethyl-cyclopropanecarboxamide]", "values": [{"measurement": "IC50", "setting": "BEN", "value": 40, "unit": "nM"}, {"measurement": "IC50", "setting": "GP5d", "value": 0.48, "unit": "nM"}, {"measurement": "IC50", "setting": "KLE", "value": 100, "unit": "nM"}, {"measurement": "IC50", "setting": "KMS-28BM; KRAS (G12A), read-out: IC50", "value": 0.63, "unit": "nM"}, {"measurement": "IC50", "setting": "LS513", "value": 0.68, "unit": "nM"}, {"measurement": "IC50", "setting": "MKN-1", "value": 28, "unit": "nM"}, {"measurement": "IC50", "setting": "MM.1S; MM.1S, KRAS (G12A), read-out: IC50", "value": 0.3, "unit": "nM"}, {"measurement": "IC50", "setting": "MOLP8; MOLP8, NRAS (p.Q61L), read-out: IC50", "value": 11, "unit": "nM"}, {"measurement": "IC50", "setting": "MOLT-4", "value": 1000, "unit": "nM"}, {"measurement": "IC50", "setting": "Mia-pa-ca-2", "value": 0.064, "unit": "nM"}, {"measurement": "IC50", "setting": "NCI-H1299; NCI-H1299, NRAS (p.Q61K), read-out: IC50", "value": 0.93, "unit": "nM"}, {"measurement": "IC50", "setting": "NCI-H1573; NCI-H1573, KRAS (G12A), read-out: IC50", "value": 0.82, "unit": "nM"}, {"measurement": "IC50", "setting": "NCI-H1944; NCI-H1944, KRAS (G13D), read-out: IC50", "value": 1.6, "unit": "nM"}, {"measurement": "IC50", "setting": "NCI-H2122", "value": 0.39, "unit": "nM"}, {"measurement": "IC50", "setting": "NCI-H23", "value": 0.17, "unit": "nM"}, {"measurement": "IC50", "setting": "NCI-H2444", "value": 0.17, "unit": "nM"}, {"measurement": "IC50", "setting": "NCI-H441", "value": 0.25, "unit": "nM"}, {"measurement": "IC50", "setting": "NCI-H929; NCI-H929, NRAS (p.G13D), read-out: IC50", "value": 7.3, "unit": "nM"}, {"measurement": "IC50", "setting": "OCI-Ly19; OCI-Ly19, NRAS (p.Q61K), read-out: IC50", "value": 1.9, "unit": "nM"}, {"measurement": "IC50", "setting": "PSN-1; PSN-1, KRAS (G12R), read-out: IC50", "value": 0.85, "unit": "nM"}, {"measurement": "IC50", "setting": "RERF-LC-Ad1; RERF-LC-Ad1, KRAS (G12A), read-out: IC50", "value": 0.3, "unit": "nM"}, {"measurement": "IC50", "setting": "SK-MEL-2; SK-MEL-2, NRAS (p.Q61R), read-out: IC50", "value": 2, "unit": "nM"}, {"measurement": "IC50", "setting": "SK-N-SH; NRAS (p.Q61K), read-out: IC50", "value": 1000, "unit": "nM"}, {"measurement": "IC50", "setting": "SKM-1; SKM-1, KRAS (K117N), read-out: IC50", "value": 0.93, "unit": "nM"}, {"measurement": "IC50", "setting": "SW 1088; SW 1088, NRAS (p.Q61K), read-out: IC50", "value": 0.75, "unit": "nM"}, {"measurement": "IC50", "setting": "SW 1990", "value": 1.6, "unit": "nM"}, {"measurement": "IC50", "setting": "SW620", "value": 0.1, "unit": "nM"}, {"measurement": "IC50", "setting": "TT", "value": 2.9, "unit": "nM"}]}, {"compound": "CCn1c(-c2cc(N3CCN(C)CC3)cnc2[C@H](C)OC)c2c3cc(ccc31)-c1csc(n1)C[C@H](NC(=O)[C@H]1C[C@@H]1C)C(=O)N1CCC[C@H](N1)C(=O)OCC(C)(C)O2", "note": "[Example A122, reference compound]", "values": [{"measurement": "IC50", "setting": "BEN", "value": 43, "unit": "nM"}, {"measurement": "IC50", "setting": "GP5d", "value": 0.41, "unit": "nM"}, {"measurement": "IC50", "setting": "KLE", "value": 100, "unit": "nM"}, {"measurement": "IC50", "setting": "KMS-28BM", "value": 0.88, "unit": "nM"}, {"measurement": "IC50", "setting": "LS513", "value": 0.47, "unit": "nM"}, {"measurement": "IC50", "setting": "MKN-1", "value": 40, "unit": "nM"}, {"measurement": "IC50", "setting": "MM.1S", "value": 0.55, "unit": "nM"}, {"measurement": "IC50", "setting": "MOLP8", "value": 22, "unit": "nM"}, {"measurement": "IC50", "setting": "MOLT-4", "value": 1000, "unit": "nM"}, {"measurement": "IC50", "setting": "Mia-pa-ca-2", "value": 0.082, "unit": "nM"}, {"measurement": "IC50", "setting": "NCI-H1299; NCI-H1299", "value": 1.5, "unit": "nM"}, {"measurement": "IC50", "setting": "NCI-H1573; NCI-H1573", "value": 1.2, "unit": "nM"}, {"measurement": "IC50", "setting": "NCI-H1944; NCI-H1944", "value": 1.7, "unit": "nM"}, {"measurement": "IC50", "setting": "NCI-H2122", "value": 0.62, "unit": "nM"}, {"measurement": "IC50", "setting": "NCI-H23", "value": 0.33, "unit": "nM"}, {"measurement": "IC50", "setting": "NCI-H2444", "value": 0.29, "unit": "nM"}, {"measurement": "IC50", "setting": "NCI-H441", "value": 0.49, "unit": "nM"}, {"measurement": "IC50", "setting": "NCI-H929; NCI-H929", "value": 8.7, "unit": "nM"}, {"measurement": "IC50", "setting": "OCI-Ly19; OCI-LY19", "value": 2.4, "unit": "nM"}, {"measurement": "IC50", "setting": "PSN-1", "value": 1.2, "unit": "nM"}, {"measurement": "IC50", "setting": "RERF-LC-Ad1", "value": 0.22, "unit": "nM"}, {"measurement": "IC50", "setting": "SK-MEL-2; SK-MEL-2", "value": 3, "unit": "nM"}, {"measurement": "IC50", "setting": "SK-N-SH", "value": 580, "unit": "nM"}, {"measurement": "IC50", "setting": "SKM-1; SKM-1", "value": 1.3, "unit": "nM"}, {"measurement": "IC50", "setting": "SW 1088", "value": 2.6, "unit": "nM"}, {"measurement": "IC50", "setting": "SW 1990", "value": 1.5, "unit": "nM"}, {"measurement": "IC50", "setting": "SW620", "value": 0.23, "unit": "nM"}, {"measurement": "IC50", "setting": "TT", "value": 5.9, "unit": "nM"}]}]}
